We go through 21 compounds from patent US20250221998A1, “DISCOVERY OF COVALENT EGFR INHIBITOR THROUGH CYSTEINE 775” (Dana-Farber Cancer Institute, Inc., priority 2022, published 2025).

For test [1], the target named is EGFR mutant L858R Ba/F3 cells (Homo sapiens, UniProt P00533, L858R, cells depend on it). The test can be described thus: Ba/F3 cell proliferation (Cell Titer Glo), EGFR L858R. The format is cell-based, murine. Conditions: 72 hours exposure, read-out: L858R BaF3 (μM), inhibitory activity against EGFR mutants. Summed up: (§1)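 Ba/F3 cells stably expressing retrovirally transduced EGFR L858R, L858R/C797S or L858R/C775S, puromycin-selected. Compound exposure 72 hours in triplicate; viability by Cell Titer Glo ATP luminescence.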
Chain of EGFR mutant L858R Ba/F3 cells (P00533 whole entry L858R): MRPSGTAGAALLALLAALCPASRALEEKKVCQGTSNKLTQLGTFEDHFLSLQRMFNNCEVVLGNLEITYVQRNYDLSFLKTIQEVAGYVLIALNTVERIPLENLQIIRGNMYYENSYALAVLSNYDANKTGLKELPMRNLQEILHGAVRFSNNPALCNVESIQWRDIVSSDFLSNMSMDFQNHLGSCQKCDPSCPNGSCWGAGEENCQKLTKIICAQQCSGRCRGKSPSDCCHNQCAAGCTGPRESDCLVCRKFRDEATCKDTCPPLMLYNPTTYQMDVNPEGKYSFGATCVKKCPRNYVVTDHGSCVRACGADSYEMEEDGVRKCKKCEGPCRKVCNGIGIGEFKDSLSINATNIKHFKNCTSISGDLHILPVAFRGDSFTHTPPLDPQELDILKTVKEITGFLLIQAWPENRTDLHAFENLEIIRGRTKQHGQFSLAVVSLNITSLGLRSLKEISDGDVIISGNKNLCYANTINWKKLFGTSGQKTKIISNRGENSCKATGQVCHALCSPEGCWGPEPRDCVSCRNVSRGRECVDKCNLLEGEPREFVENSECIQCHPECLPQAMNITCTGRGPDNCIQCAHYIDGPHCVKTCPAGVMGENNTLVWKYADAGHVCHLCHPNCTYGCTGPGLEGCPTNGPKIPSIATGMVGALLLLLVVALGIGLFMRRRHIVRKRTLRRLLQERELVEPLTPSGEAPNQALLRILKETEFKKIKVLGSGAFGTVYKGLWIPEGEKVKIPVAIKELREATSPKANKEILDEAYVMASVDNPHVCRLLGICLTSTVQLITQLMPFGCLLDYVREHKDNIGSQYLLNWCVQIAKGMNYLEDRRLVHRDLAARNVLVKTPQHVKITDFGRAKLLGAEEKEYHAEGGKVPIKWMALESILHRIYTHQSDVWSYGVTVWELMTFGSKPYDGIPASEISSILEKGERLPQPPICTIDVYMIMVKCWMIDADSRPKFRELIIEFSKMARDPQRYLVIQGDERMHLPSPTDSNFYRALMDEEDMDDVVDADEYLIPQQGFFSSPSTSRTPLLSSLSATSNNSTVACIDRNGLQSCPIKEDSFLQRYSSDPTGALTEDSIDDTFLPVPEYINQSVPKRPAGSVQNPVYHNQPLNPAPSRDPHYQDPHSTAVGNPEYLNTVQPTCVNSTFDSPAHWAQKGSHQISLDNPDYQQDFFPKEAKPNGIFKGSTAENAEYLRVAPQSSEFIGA
For orientation: Cellular ATP, detected with luciferase, serves as a proxy for viable cell number.

Test [2] has as its target EGFR L858R/C797S Ba/F3 cells (Homo sapiens, UniProt P00533, C797S/L858R, cells depend on it). The test can be described thus: Ba/F3 cell proliferation (Cell Titer Glo), EGFR L858R/C797S. The format is cell-based, murine. The conditions noted are these: 72 hours exposure, read-out: L858R/C797S (μM), inhibitory activity against EGFR mutants. In a few lines: as §1

Chain of EGFR L858R/C797S Ba/F3 cells (P00533 whole entry C797S/L858R): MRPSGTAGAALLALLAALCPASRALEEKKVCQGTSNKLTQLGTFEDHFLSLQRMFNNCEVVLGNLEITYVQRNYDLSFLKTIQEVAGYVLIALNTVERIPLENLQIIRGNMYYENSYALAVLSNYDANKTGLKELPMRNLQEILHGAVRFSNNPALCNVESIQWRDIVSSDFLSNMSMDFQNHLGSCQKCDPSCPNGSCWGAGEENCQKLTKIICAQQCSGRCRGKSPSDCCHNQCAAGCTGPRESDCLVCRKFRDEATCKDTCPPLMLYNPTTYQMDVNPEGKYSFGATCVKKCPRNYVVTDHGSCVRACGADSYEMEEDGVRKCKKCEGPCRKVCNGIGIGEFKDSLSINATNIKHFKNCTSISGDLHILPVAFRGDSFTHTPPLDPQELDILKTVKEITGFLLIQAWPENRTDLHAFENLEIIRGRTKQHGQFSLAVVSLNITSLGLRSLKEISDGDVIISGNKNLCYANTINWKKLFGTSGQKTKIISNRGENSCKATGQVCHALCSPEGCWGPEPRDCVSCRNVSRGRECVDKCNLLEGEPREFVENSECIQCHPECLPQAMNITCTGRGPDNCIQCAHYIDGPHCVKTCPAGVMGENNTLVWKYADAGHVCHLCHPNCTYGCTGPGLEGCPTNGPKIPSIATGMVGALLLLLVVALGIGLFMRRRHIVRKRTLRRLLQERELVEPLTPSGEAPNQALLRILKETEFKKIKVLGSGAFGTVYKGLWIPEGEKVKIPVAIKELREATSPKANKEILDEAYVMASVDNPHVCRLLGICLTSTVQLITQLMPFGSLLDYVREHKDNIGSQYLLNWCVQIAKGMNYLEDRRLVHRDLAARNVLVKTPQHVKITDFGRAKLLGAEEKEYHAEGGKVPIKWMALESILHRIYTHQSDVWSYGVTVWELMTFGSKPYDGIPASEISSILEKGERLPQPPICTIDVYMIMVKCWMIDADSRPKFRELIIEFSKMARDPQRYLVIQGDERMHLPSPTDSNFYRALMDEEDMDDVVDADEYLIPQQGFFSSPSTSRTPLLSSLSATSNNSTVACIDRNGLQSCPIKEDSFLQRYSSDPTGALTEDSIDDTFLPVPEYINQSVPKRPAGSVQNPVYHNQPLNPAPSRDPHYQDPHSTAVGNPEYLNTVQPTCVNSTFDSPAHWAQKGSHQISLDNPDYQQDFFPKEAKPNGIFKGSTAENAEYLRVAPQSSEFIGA

For the compound `C=CC(=O)N1CCN(c2cc3cnc(N)nc3n([C@H]3CC[C@@](C)(O)CC3)c2=O)c2cccc(C)c21` [Compound 088, 6-(4-acryloyl-5-methyl-3,4-dihydroquinoxalin-1 (2H)-yl)-2-amino-8-((1s,4s)-4-hydroxy-4-methylcyclohexyl)pyrido[2,3-d]pyrimidin-7 (8H)-one], the GI50 in test [1] and in test [2] was ≤ 0.25 µM each time.
As for `C=C(F)C(=O)N1CCC(c2cc3cnc(Nc4cnn(CCO)c4)nc3n(C)c2=O)c2ccccc21` (stereo not drawn) [Compound 014, 6-[1-(2-fluoroprop-2-enoyl)-3,4-dihydro-2H-quinolin-4-yl]-2-[[1-(2-hydroxyethyl)pyrazol-4-yl]amino]-8-methyl-pyrido[2,3-d]pyrimidin-7-one], the GI50 in test [1] and in test [2] was ≤ 0.25 µM throughout.
As for `C=CC(=O)N1CCN(c2cc3cnc(Nc4ccc(N5CCN(C)CC5)cc4)nc3n(C3CC(O)C3)c2=O)c2cccc(C)c21` (stereo not drawn) [Compound 046, 8-(3-hydroxycyclobutyl)-2-[4-(4-methylpiperazin-1-yl)anilino]-6-(5-methyl-4-prop-2-enoyl-2,3-dihydroquinoxalin-1-yl)pyrido[2,3-d]pyrimidin-7-one], the GI50 in test [1] and in test [2] was ≤ 0.25 µM each time.
Take `C=CC(=O)N1CCN(c2cc3cnc(N)nc3n(-c3ccc(N(C)CCN(C)C)cc3)c2=O)c2cccc(C)c21` [Compound 101, 2-amino-8-[4-[2-(dimethylamino)ethyl-methyl-amino]phenyl]-6-(5-methyl-4-prop-2-enoyl-2,3-dihydroquinoxalin-1-yl)pyrido[2,3-d]pyrimidin-7-one]: the GI50 in test [1] lay within 0.25 to 0.5 µM; in test [2], 0.5 to 2.5 µM.
With `C=CC(=O)N1CC(C)N(c2cc3cnc(Nc4ccc(N5CCN(C)CC5)cc4)nc3n(C)c2=O)C(C)C1` (stereo not drawn) [Compound 022, 6-(2,6-dimethyl-4-prop-2-enoyl-piperazin-1-yl)-8-methyl-2-[4-(4-methylpiperazin-1-yl)anilino]pyrido[2,3-d]pyrimidin-7-one], the GI50 in test [1] and in test [2] was ≥ 2.5 µM each time.
Regarding `C=CC(=O)N1CCN(c2cc3cnc(Nc4cnn(CCS(C)(=O)=O)c4)nc3n(C)c2=O)c2cccc(C)c21` [Compound 041], the GI50 in test [1] is ≤ 0.25 µM; in test [2], 0.25 to 0.5 µM.
On to `C=CC(=O)N1CCN(c2cc3cnc(NC4CC4)nc3n(C3CCN(C)CC3)c2=O)c2cccc(C)c21` [Compound 105, 2-(cyclopropylamino)-8-(1-methyl-4-piperidyl)-6-(5-methyl-4-prop-2-enoyl-2,3-dihydroquinoxalin-1-yl)pyrido[2,3-d]pyrimidin-7-one], for which the GI50 in test [1] and in test [2] was ≤ 0.25 µM in each case.
For the compound `C=CC(=O)N1CCN(c2cc3cnc(Nc4ccc(OCCN(C)C)cc4)nc3n(C3CCOC3)c2=O)c2cccc(C)c21` (stereo not drawn) [Compound 072, 2-[4-[2-(dimethylamino)ethoxy]anilino]-6-(5-methyl-4-prop-2-enoyl-2,3-dihydroquinoxalin-1-yl)-8-tetrahydrofuran-3-yl-pyrido[2,3-d]pyrimidin-7-one], the GI50 in test [1] and in test [2] was ≤ 0.25 µM throughout.
As for `C=CC(=O)N1CCN(c2cc3cnc(Nc4ccc(OCCN(C)C)cc4OC)nc3n(C)c2=O)c2cccc(C)c21` [Compound 068], the GI50 in test [1] and in test [2] was ≤ 0.25 µM each time.
Turning to `C=CC(=O)N1CCN(c2cc3cnc(NC4CC4)nc3n(-c3ccc(OCCN(C)C)cc3)c2=O)c2cccc(C)c21` [Compound 082, 2-(cyclopropylamino)-8-[4-[2-(dimethylamino)ethoxy]phenyl]-6-(5-methyl-4-prop-2-enoyl-2,3-dihydroquinoxalin-1-yl)pyrido[2,3-d]pyrimidin-7-one], the GI50 in test [1] and in test [2] was ≤ 0.25 µM throughout.
Turning to `C=CC(=O)N1CCN(c2cc3cnc(Nc4ccc(OCCN(C)C)cc4)nc3n(C3CC(OC)C3)c2=O)c2cccc(C)c21` (stereo not drawn) [Compound 071, 2-[4-[2-(dimethylamino)ethoxy]anilino]-8-(3-methoxycyclobutyl)-6-(5-methyl-4-prop-2-enoyl-2,3-dihydroquinoxalin-1-yl)pyrido[2,3-d]pyrimidin-7-one], the GI50 in test [1] and in test [2] was ≤ 0.25 µM throughout.
Regarding `C=CC(=O)N1CCN(c2cc3cnc(Nc4ccc(N5CCN(C)CC5)cc4)nc3n(C)c2=O)c2cccc(C)c21` [Compound 019, 8-methyl-2-[4-(4-methylpiperazin-1-yl)anilino]-6-(5-methyl-4-prop-2-enoyl-2,3-dihydroquinoxalin-1-yl)pyrido[2,3-d]pyrimidin-7-one], the GI50 in test [1] and in test [2] was ≤ 0.25 µM each time.
Consider `C=CC(=O)N1CCN(c2cc3cnc(NC4CC4)nc3n(C3CCOC3)c2=O)c2cccc(C)c21` (stereo not drawn) [Compound 096, 2-(cyclopropylamino)-6-(5-methyl-4-prop-2-enoyl-2,3-dihydroquinoxalin-1-yl)-8-tetrahydrofuran-3-yl-pyrido[2,3-d]pyrimidin-7-one], for which the GI50 in test [1] and in test [2] was ≤ 0.25 µM each time.
With `C=CC(=O)Nc1c(O)cccc1Oc1cc2cnc(Nc3ccc(N4CCN(C)CC4)cc3)nc2n(C)c1=O` [Compound 064, N-[2-hydroxy-6-[8-methyl-2-[4-(4-methylpiperazin-1-yl)anilino]-7-oxo-pyrido[2,3-d]pyrimidin-6-yl]oxy-phenyl]prop-2-enamide], the GI50 was ≤ 0.25 µM in test [1] and 0.25 to 0.5 µM in test [2].
Regarding `C=CC(=O)N1CCN(c2cc3cnc(Nc4ccc5c(c4)CN(S(C)(=O)=O)CC5)nc3n(C)c2=O)c2cccc(C)c21` [Compound 035], the GI50 in test [1] and in test [2] was ≤ 0.25 µM in each case.
Consider `C=CC(=O)N1CCN(c2cc3cnc(Nc4cnn(C5CCN(C)CC5)c4)nc3n(C)c2=O)c2cccc(C)c21` [Compound 039, 8-methyl-2-[[1-(1-methyl-4-piperidyl)pyrazol-4-yl]amino]-6-(5-methyl-4-prop-2-enoyl-2,3-dihydroquinoxalin-1-yl)pyrido[2,3-d]pyrimidin-7-one], for which the GI50 in test [1] and in test [2] was ≤ 0.25 µM each time.
With `C=CC(=O)N1CCN(c2cc3cnc(Nc4cccc(N5CCS(=O)(=O)CC5)c4)nc3n(C)c2=O)c2cccc(C)c21` [Compound 045], the GI50 in test [1] and in test [2] was ≤ 0.25 µM each time.
Regarding `C=CC(=O)N1CCN(c2cc3cnc(N)nc3n(-c3ccc(OCCN(C)C)cc3)c2=O)c2cccc(C)c21` [Compound 080, 2-amino-8-[4-[2-(dimethylamino)ethoxy]phenyl]-6-(5-methyl-4-prop-2-enoyl-2,3-dihydroquinoxalin-1-yl)pyrido[2,3-d]pyrimidin-7-one], the GI50 in test [1] and in test [2] was ≤ 0.25 µM each time.
Turning to `C=C(F)C(=O)N1CCN(c2cc3cnc(Nc4ccc(N5CCN(C)CC5)cc4)nc3n(C)c2=O)c2cccc(C)c21` [Compound 028], the GI50 in test [1] was ≤ 0.25 µM; in test [2] it was 0.25 to 0.5 µM.
Take `C=CC(=O)N1CCN(c2cc3cnc(N)nc3n(-c3cccc(OC)c3)c2=O)c2cccc(C)c21` [Compound 090]: the GI50 in test [1] is ≤ 0.25 µM; in test [2], 0.25 to 0.5 µM.
Consider `C=CC(=O)N1CCN(c2cc3cnc(NC4CCC4)nc3n(-c3ccc(N(C)CCN(C)C)cc3)c2=O)c2cccc(C)c21` [Compound 102, 2-(cyclobutylamino)-8-[4-[2-(dimethylamino)ethyl-methyl-amino]phenyl]-6-(5-methyl-4-prop-2-enoyl-2,3-dihydroquinoxalin-1-yl)pyrido[2,3-d]pyrimidin-7-one], for which the GI50 in test [1] and in test [2] was ≤ 0.25 µM in each case.
